Data published in publication PMC6209770 (Frontiers in Pharmacology, 2018).
Values joined by “and” are separate entries in the source; they are usually repeats but may differ in a detail not shown here. Equal values may be shown once. Read-outs that look alike come from different tables or passages of the source.

Columns and labels:
mice [1] = experiment: Four plate test after pretreatment with pCPA, WAY-100635 or AMPT; assay type: in vivo
Protocol: (§1) Mice were placed individually in the four plate apparatus connected to the power source. After a 15 s of habituation period, each mouse crossing from one plate to another (two limbs on one plate, two on another) was punished by an electric shock (0.8 mA, 0.5 s). If the mouse continued running, it received no new shock for the following 3 s. The number of punished crossings was calculated during the 60 s of the test.
We performed the four plate test 30 min after the administration.
Control group received vehicle (1% Tween). […] We performed the four plate test 30 min after the compound administration.

serotonin levels = tested on: serotonin levels; design: method as in Imaizumi et al. (1996); settings: 3-day treatment with pCPA 200 mg/kg; ref Imaizumi et al. (1996); cited from earlier work
mice [2] = experiment: Spontaneous locomotor activity; assay type: in vivo
Protocol: Photoresistor actometers (Ugo Basile, Italy) connected to a counter for the recording of light-beam interruptions were used to investigate the effect of the compound on locomotor activity in mice. Locomotor activity was counted as the number of the light-beam crossing. It was recorded individually for each animal. After administration of the tested compound, each mouse was placed separately in a cage for 30 min habituation period. After that time, the parameter was measured for 1 min and 5 min (i.e., time equal to the observation period in four plate test and elevated plus maze test, respectively). The cages were sanitized with 70% ethanol after each mouse.

mice [3] = experiment: Elevated plus maze test; assay type: in vivo
mice [4] = experiment: Four plate test; assay type: in vivo
Protocol: as §1

D2 receptor = D2 receptor (Homo sapiens, UniProt P14416); experiment: cell-based
Protocol: (§2) Serial dilutions were prepared in 96-well microplate in appropriate dilution buffer (HBSS or medium) with 0.1% BSA added, and 8–10 concentrations were tested in duplicates. At least two independent experiments were performed for each type of method. Assays were done according to manufacturer’s protocols.

GABAA receptor = settings: read-out: GABAA receptors Ki ± SEM; rat cerebral cortex, [3H]-muscimol 1 nM
Protocol: The final incubation mixture (total volume 250 μl) consisted of a 50 μl solution of the test compound, 50 μl of radioligand and 150 μl of diluted membranes or the tissue suspension. The incubation was terminated by rapid filtration over glass fiber filters GF/B (PerkinElmer, United States) using 96-well FilterMate Harvester (PerkinElmer, United States). Five rapid washes were performed with ice-cold 50 mM Tris–HCl buffer (pH 7.4 or 7.6). […] Radioligand binding data were analyzed using iterative curve fitting routines GraphPad Prism 5.0 (GraphPad Software). […] At least two independent experiments were performed for each assay.

5-HT1A receptor [5] = target: T1, 5-HT1A receptor (Homo sapiens, UniProt P08908); experiment: Tango LiveBLAzer β-arrestin recruitment assay, HTR1A-bla U2OS cells; settings: 5-HT1A ß-arrestin assay
T1 sequence (P08908 1-422): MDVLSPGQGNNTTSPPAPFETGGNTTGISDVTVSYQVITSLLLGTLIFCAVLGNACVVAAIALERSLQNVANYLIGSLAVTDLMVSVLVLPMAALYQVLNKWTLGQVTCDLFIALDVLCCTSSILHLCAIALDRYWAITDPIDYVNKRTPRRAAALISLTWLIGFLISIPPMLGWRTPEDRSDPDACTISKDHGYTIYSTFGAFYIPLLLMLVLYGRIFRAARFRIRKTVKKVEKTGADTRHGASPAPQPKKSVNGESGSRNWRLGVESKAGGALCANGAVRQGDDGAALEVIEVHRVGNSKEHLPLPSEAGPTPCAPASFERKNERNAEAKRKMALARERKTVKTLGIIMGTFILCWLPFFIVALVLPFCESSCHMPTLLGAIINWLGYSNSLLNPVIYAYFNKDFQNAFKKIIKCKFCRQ

[6] = target: T2, human serotonin 5-HT1A receptor (Homo sapiens, UniProt P08908); experiment: cAMP assay (TR-FRET), CHO-K1 cells; settings: 5-HT1A cAMP assay
T2 sequence (P08908 1-422): T1 sequence (P08908 1-422)

5-HT1A receptor [7] = target: T1, 5-HT1A receptor; design: expressed in transfected cells; host or cells: CHO (CHO-5HT1A); method as in Kubacka et al., 2016; settings: 5-HT1A Ca2+ assay, ref Kubacka et al., 2016, cited from earlier work
5-HT1A receptor [8] = target: T1, 5-HT1A receptor; experiment: SureFire ERK-phosphorylation AlphaLISA assay, CHO-5HT1A cells; settings: 5-HT1A pERK1/2 assay
Protocol: as §2

5-HT2A receptor = 5-HT2A receptor (Homo sapiens, UniProt P28223); assay type: cell-based
Protocol: as §2

[9] = antagonist mode, serotonin EC80 (300 nM)
[10] = antagonist mode, serotonin EC80 (120 nM)
[11] = antagonist mode, serotonin EC80 (45 nM)

N[C@@H](Cc1ccc(Cl)cc1)C(=O)O (racemic) [pCPA, p-Chlorophenylalanine]
Effect on number of punished crossings (mice [1]; pCPA alone, 200 mg/kg i.p., three days): did not influence | Reduction of serotonin levels in the cortex (serotonin levels): 30% | Reduction of serotonin levels in the diencephalon (serotonin levels): 35% | Reduction of serotonin levels in the midbrain (serotonin levels): 24% | Reduction of serotonin levels in the pons with medulla (serotonin levels): 34% | Number of crossings ± SEM (mice [2]; pCPA experiment, pCPA 200 mg/kg): 29.4

CCCN(CCC)C1CCc2cccc(O)c2C1 (stereo not drawn) [8-OH-DPAT]
Increase in time spent in the open arms vs non-treated control (mice [3]; 2 mg/kg, 15 min before test (but not 0.25, 0.5 or 1 mg/kg)): 154.3% | Effect on number of open arm entries (mice [3]; 8-OH-DPAT doses tested up to 2 mg/kg, 15 min before test): no effect | Increase in the number of punished crossings (mice [4]; 0.5 mg/kg, 15 min before test (but not 0.25, 1 or 2 mg/kg)): 38.2%

CC(N)(Cc1ccc(O)cc1)C(=O)O (stereo not drawn) [AMPT, α-methyl-p-tyrosine]
Effect on number of punished crossings (mice [1]; AMPT alone, 100 mg/kg i.p.): had no effect | Number of crossings ± SEM (mice [2]; AMPT experiment, AMPT 100 mg/kg): 24.5

CN1CCc2cccc3c2[C@H]1Cc1ccc(O)c(O)c1-3 [Apomorphine]
Emax (D2 receptor; read-out: Agonist mode Emax %): 100% | Emax (D2 receptor; read-out: Antagonist mode Emax %): 1%

CN1C(=O)CN=C(c2ccccc2)c2cc(Cl)ccc21 [Diazepam, diazepam]
Ki (GABAA receptor): 5.6 ± 0.7 nM | Increase in number of open arm entries vs non-treated control (mice [3]; mouse, in vivo): 78.5% and 73.9% and 124.6% | Increase in time spent in the open arms vs non-treated control (mice [3]; mouse, in vivo): 84.6% and 59.9%

COc1ccccc1N1CCN(CCCOc2cc(C)ccc2C)CC1.Cl [HBK-17, 1-[(2,5-dimethylphenoxy)propyl]-4-(2-methoxyphenyl)piperazine hydrochloride]
Number of crossings ± SEM (mice [2]; mouse, in vivo, ip, 5 mg/kg): 44.8

CC1CCN(CC[C@H]2CCCN2S(=O)(=O)c2cccc(O)c2)CC1 [SB269970]
Increase in the number of punished crossings vs non-treated control (mice [4]; […] i.p. 30 min before test (but not 1.25 or 5 mg/kg)): 137.5%

COc1ccccc1N1CCN(CC(C(=O)NC(C)(C)C)c2ccccc2)CC1 (stereo not drawn) [WAY-100135]
Agonist mode Emax % (5-HT1A receptor [5]; agonist mode, relative to serotonin): 1% | Antagonist mode Emax % (5-HT1A receptor [5]; [9]): 5% | Antagonist mode pIC50 (5-HT1A receptor [5]; [9]): 8.1 | Kb (5-HT1A receptor [5]; read-out: Antagonist mode Kb, antagonist mode, serotonin EC80 (300 nM)): 5.9 nM | Agonist mode Emax % ([6]; agonist mode, 10 μM forskolin): 2% | Antagonist mode Emax % [6, 10]: 8% | Antagonist mode pIC50 [6, 10]: 7.9 | Kb ([6]; read-out: Antagonist mode Kb, antagonist mode, serotonin EC80 (120 nM)): 6.4 nM | Agonist mode Emax % (5-HT1A receptor [7]; agonist mode): 2% | Antagonist mode Emax % (5-HT1A receptor [7]; antagonist mode): 0% | Antagonist mode pIC50 (5-HT1A receptor [7]; antagonist mode): 8.3 | Kb (5-HT1A receptor [7]; antagonist mode): 0.8 nM | Agonist mode Emax % (5-HT1A receptor [8]; agonist mode): 2% | Antagonist mode Emax % (5-HT1A receptor [8]; [11]): 0% | Antagonist mode pIC50 (5-HT1A receptor [8]; [11]): 7.90 | Kb (5-HT1A receptor [8]; read-out: Antagonist mode Kb, antagonist mode, serotonin EC80 (45 nM)): 2.7 nM

COc1ccccc1N1CCN(CCN(C(=O)C2CCCCC2)c2ccccn2)CC1 [WAY-100635]
Effect on number of punished crossings (mice [1]; WAY-100635 alone, 0.3 mg/kg s.c.): did not influence | Number of crossings ± SEM (mice [2]; WAY-100635 experiment, WAY-100635 0.3 mg/kg): 27.9

CC(N)Cc1c[nH]c2ccc(O)cc12 (stereo not drawn) [α-Methylserotonin, α-methylserotonin]
Agonist mode Emax % (5-HT2A receptor; agonist mode): 100% | Agonist mode pEC50 (5-HT2A receptor; agonist mode): 8.70 | Antagonist mode Emax % (5-HT2A receptor; antagonist mode): 1%
